Results taken from US20050182220A1, “Novel functional norbornenes as initiators for radical polymerization, their polymeric derivatives and a process for producing the same” (priority 2004, published 2005).

Assay: Solubility in organic solvents
Type: physicochemical

CC(C)(Br)C(=O)NCC1CC2C=CC1C2 (stereo not drawn) [NBTMBr]
Solubility: completely soluble in (solvents) (at 60° C.): completely in N,N-dimethylacetamide (DMAc) | Solubility: partially soluble in (solvents) (at 60° C.): partially in toluene, benzene, hexane and N-methyl-2-pyrrolidinone (NMP) | Solubility: soluble in (solvents) (at room temperature): soluble in acetone, pyridine, ethanol, methanol, methylene chloride, tetrahydrofuran, N,N-dimethylformamide (DMF) and dimethylsulfoxide (DMSO)
